Patent US20250221988A1 (Cullgen (Shanghai), Inc., priority 2022, published 2025)
Read-outs that look alike come from different tables or passages of the source.

Tests used:
MOLM-13 cells = experiment: Cell viability assay (CellTiter-Glo) in MOLM-13 cells; format: cell-based
MV4;11 cells = experiment: Cell viability assay (CellTiter-Glo) in MV4;11 cells; format: cell-based; conditions: read-out: MV4
In short: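 5000 cells/well in RPMI 1640 or DMEM with 10% FBS, treated with 8- or 12-point 3-fold compound dilutions, with or without gilteritinib (10 nM for MV4;11, 20 nM for MOLM-13). Viability by CellTiter-Glo after three days; IC50 by nonlinear least-squares regression.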

[1] = Homo sapiens, 72 h, MOLM-13 cells, compound alone, three days, read-out: MOLM-13 IC50
[2] = MOLM-13 cells, with gilteritinib, three days, read-out: MOLM-13 IC50 (nM) + 10 nM Gil
[3] = Homo sapiens, MV4-11, 72 h, MV4;11 cells, compound alone, three days, 11 IC50
[4] = MV4;11 cells, with 10 nM gilteritinib, three days, 11 IC50 (nM) + 10 nM Gil

| Structure (SMILES) | IC50 (MOLM-13 cells; [1]) [nM] | IC50 (MOLM-13 cells; [2]) [nM] | IC50 (MV4;11 cells; [3]) [nM] | IC50 (MV4;11 cells; [4]) [nM] | IC50 (MOLM-13 cells; Homo sapiens, MOLM-13, 72 h, read-out: MOLM-13 IC50 (nM)) [nM] | IC50 (MOLM-13 cells; read-out: MOLM-13 IC50 (nM) + 10 nM Gil, MOLM-13 cells, with gilteritinib, three days) [nM] | IC50 (MV4;11 cells; Homo sapiens, MV4-11, 72 h, 11 IC50 (nM)) [nM] | IC50 (MV4;11 cells; 11 IC50 (nM) + 10 nM Gil, MV4;11 cells, with 10 nM gilteritinib, three days) [nM] |
| --- | --- | --- | --- | --- | --- | --- | --- | --- |
| O=C1CCC(N2C(=O)c3ccc(NC[C@H]4C[C@H](n5ncc6ccccc65)C4)cc3C2=O)C(=O)N1 (stereo partly drawn) [GS-728, 5-(((Trans-3-(1H-indazol-1-yl)cyclobutyl)methyl)amino)-2-(2,6-dioxopiperidin-3-yl)isoindoline-1,3-dione] | > 1000 | 10 to 100 | > 1000 |  |  |  |  |  |
| CN1CCC(n2ncc3cnc(-c4cn([C@H]5C[C@H](CNc6ccc7c(c6)C(=O)N(C6CCC(=O)NC6=O)C7=O)C5)nc4C4CC4)cc32)CC1 (stereo partly drawn) [GS-770, 5-(((Trans-3-(3-cyclopropyl-4-(1-(1-methylpiperidin-4-yl)-1H-pyrazolo[4,3-c]pyridin-6-yl)-1H-pyrazol-1-yl)cyclobutyl)methyl)amino)-2-(2,6-dioxopiperidin-3-yl)isoindoline-1,3-dione] | 10 to 100 | 10 to 100 | 10 to 100 | 10 to 100 |  |  |  |  |
| Cn1ncc2cnc(-c3cn([C@H]4C[C@H](COc5ccc6c(c5)C(=O)N(C5CCC(=O)NC5=O)C6=O)C4)nc3C3CC3)cc21 (stereo partly drawn) [GS-761, 5-((Trans-3-(3-cyclopropyl-4-(1-methyl-1H-pyrazolo[4,3-c]pyridin-6-yl)-1H-pyrazol-1-yl)cyclobutyl)methoxy)-2-(2,6-dioxopiperidin-3-yl)isoindoline-1,3-dione] | > 1000 | 100 to 1000 | > 1000 | 100 to 1000 |  |  |  |  |
| Cc1nc(-c2cn(C[C@H]3C[C@H](Nc4ccc5c(c4)C(=O)N(C4CCC(=O)NC4=O)C5=O)C3)nc2C2CC2)ccc1F (stereo partly drawn) [GS-711, 5-((Trans-3-((3-cyclopropyl-4-(5-fluoro-6-methylpyridin-2-yl)-1H-pyrazol-1-yl)methyl)cyclobutyl)amino)-2-(2,6-dioxopiperidin-3-yl)isoindoline-1,3-dione] | > 1000 |  | > 1000 |  |  |  |  |  |
| Cc1cc(F)cnc1-c1cn([C@H]2C[C@H](CNc3ccc4c(c3)CN(C3CCC(=O)NC3=O)C4=O)C2)nc1C(F)F (stereo partly drawn) [GS-668, 3-(5-(((Trans-3-(3-(difluoromethyl)-4-(5-fluoro-3-methylpyridin-2-yl)-1H-pyrazol-1-yl)cyclobutyl)methyl)amino)-1-oxoisoindolin-2-yl)piperidine-2,6-dione] | < 10 | < 10 | < 10 | < 10 |  |  |  |  |
| NC1CCN(c2ccc3ncc(-c4cn([C@H]5C[C@H](CNc6ccc7c(c6)C(=O)N(C6CCC(=O)NC6=O)C7=O)C5)nc4C4CC4)nc3c2)C1 (stereo partly drawn) [GS-706, 5-(((Trans-3-(4-(7-(3-aminopyrrolidin-1-yl)quinoxalin-2-yl)-3-cyclopropyl-1H-pyrazol-1-yl)cyclobutyl)methyl)amino)-2-(2,6-dioxopiperidin-3-yl)isoindoline-1,3-dione] | 10 to 100 | < 10 | 10 to 100 | < 10 |  |  |  |  |
| O=C1CCC(N2C(=O)c3ccc(NC[C@H]4C[C@H](n5cc(-c6cnc7cc(N8CC(O)C8)ccc7n6)c(C6CC6)n5)C4)cc3C2=O)C(=O)N1 (stereo partly drawn) [GS-712, 5-(((Trans-3-(3-cyclopropyl-4-(6-(3-hydroxyazetidin-1-yl)quinoxalin-2-yl)-1H-pyrazol-1-yl)cyclobutyl)methyl)amino)-2-(2,6-dioxopiperidin-3-yl)isoindoline-1,3-dione] | < 10 | < 10 | < 10 | < 10 |  |  |  |  |
| O=C1CCC(N2C(=O)c3ccc(NC[C@H]4C[C@H](n5cc(-c6cc7c(cn6)cnn7C6CNC6)c(C6CC6)n5)C4)cc3C2=O)C(=O)N1 (stereo partly drawn) [GS-675, 5-(((Trans-3-(4-(1-(azetidin-3-yl)-1H-pyrazolo[4,3-c]pyridin-6-yl)-3-cyclopropyl-1H-pyrazol-1-yl)cyclobutyl)methyl)amino)-2-(2,6-dioxopiperidin-3-yl)isoindoline-1,3-dione] | > 1000 | 100 to 1000 | > 1000 | 100 to 1000 |  |  |  |  |
| CC(C)n1ccc2nc(-c3cn([C@H]4C[C@H](CNc5ccc6c(c5)C(=O)N(C5CCC(=O)NC5=O)C6=O)C4)nc3C3CC3)ccc21 (stereo partly drawn) [GS-696, 5-(((Trans-3-(3-cyclopropyl-4-(1-isopropyl-1H-pyrrolo[3,2-b]pyridin-5-yl)-1H-pyrazol-1-yl)cyclobutyl)methyl)amino)-2-(2,6-dioxopiperidin-3-yl)isoindoline-1,3-dione] | > 1000 | 10 to 100 | 100 to 1000 | 10 to 100 |  |  |  |  |
| O=C1CCC(N2C(=O)c3ccc(NC[C@H]4C[C@H](n5cc(-c6ccc7[nH]ncc7n6)c(C6CC6)n5)C4)cc3C2=O)C(=O)N1 (stereo partly drawn) [GS-684, 5-(((Trans-3-(3-cyclopropyl-4-(1H-pyrazolo[4,3-b]pyridin-5-yl)-1H-pyrazol-1-yl)cyclobutyl)methyl)amino)-2-(2,6-dioxopiperidin-3-yl)isoindoline-1,3-dione] | 100 to 1000 | 10 to 100 | 10 to 100 | 10 to 100 |  |  |  |  |
| Cc1nc(-c2cn([C@H]3C[C@H](CNc4ccc5c(c4)C(=O)N(C4CCC(=O)NC4=O)C5)C3)nc2C2CC2)ccc1F (stereo partly drawn) [GS-732, 3-(6-(((Trans-3-(3-cyclopropyl-4-(5-fluoro-6-methylpyridin-2-yl)-1H-pyrazol-1-yl)cyclobutyl)methyl)amino)-1-oxoisoindolin-2-yl)piperidine-2,6-dione] | > 1000 | 100 to 1000 | 100 to 1000 | 10 to 100 |  |  |  |  |
| CN1CC(n2cc3cnc(-c4cn([C@H]5C[C@H](CNc6ccc7c(c6)C(=O)N(C6CCC(=O)NC6=O)C7=O)C5)nc4C4CC4)cc3n2)C1 (stereo partly drawn) [GS-680, 5-(((Trans-3-(3-cyclopropyl-4-(2-(1-methylazetidin-3-yl)-2H-pyrazolo[4,3-c]pyridin-6-yl)-1H-pyrazol-1-yl)cyclobutyl)methyl)amino)-2-(2,6-dioxopiperidin-3-yl)isoindoline-1,3-dione] | 10 to 100 | < 10 | < 10 | < 10 |  |  |  |  |
| Cn1ncc2nc(-c3cn([C@H]4C[C@H](CNc5ccc6c(c5)C(=O)N(C5CCC(=O)NC5=O)C6=O)C4)nc3C3CC3)ccc21 (stereo partly drawn) [GS-699, 5-(((Trans-3-(3-cyclopropyl-4-(1-methyl-1H-pyrazolo[4,3-b]pyridin-5-yl)-1H-pyrazol-1-yl)cyclobutyl)methyl)amino)-2-(2,6-dioxopiperidin-3-yl)isoindoline-1,3-dione] | 100 to 1000 | 10 to 100 | 10 to 100 | 10 to 100 |  |  |  |  |
| O=C1CCC(N2C(=O)c3ccc(NC[C@H]4C[C@H](n5cc(-c6cnc7ccc(N8CC(O)C8)cc7n6)c(C6CC6)n5)C4)cc3C2=O)C(=O)N1 (stereo partly drawn) [GS-644, 5-(((Trans-3-(3-cyclopropyl-4-(7-(3-hydroxyazetidin-1-yl)quinoxalin-2-yl)-1H-pyrazol-1-yl)cyclobutyl)methyl)amino)-2-(2,6-dioxopiperidin-3-yl)isoindoline-1,3-dione] | 10 to 100 | < 10 | 10 to 100 | < 10 |  |  |  |  |
| Cc1cccc(-c2cn(C3CC4(CC(C(=O)NCc5ccc6c(c5)C(=O)N(C5CCC(=O)NC5=O)C6=O)C4)C3)nc2C2CC2)n1 (stereo not shown) [GS-774, 6-(3-Cyclopropyl-4-(6-methylpyridin-2-yl)-1H-pyrazol-1-yl)-N-((2-(2,6-dioxopiperidin-3-yl)-1,3-dioxoisoindolin-5-yl)methyl)spiro[3.3]heptane-2-carboxamide] | > 1000 | 100 to 1000 | 100 to 1000 | 10 to 100 |  |  |  |  |
| Cn1ncc2cncc(-c3cn([C@H]4C[C@H](CNc5ccc6c(c5)C(=O)N(C5CCC(=O)NC5=O)C6=O)C4)nc3C3CC3)c21 (stereo partly drawn) [GS-781, 5-(((Trans-3-(3-cyclopropyl-4-(1-methyl-1H-pyrazolo[4,3-c]pyridin-7-yl)-1H-pyrazol-1-yl)cyclobutyl)methyl)amino)-2-(2,6-dioxopiperidin-3-yl)isoindoline-1,3-dione] | 100 to 1000 | 10 to 100 | 10 to 100 | < 10 |  |  |  |  |
| CC(C)n1ncc2ccc(-c3cn([C@H]4C[C@H](CNc5ccc6c(c5)C(=O)N(C5CCC(=O)NC5=O)C6=O)C4)nc3C3CC3)nc21 (stereo partly drawn) [GS-730, 5-(((Trans-3-(3-cyclopropyl-4-(1-isopropyl-1H-pyrazolo[3,4-b]pyridin-6-yl)-1H-pyrazol-1-yl)cyclobutyl)methyl)amino)-2-(2,6-dioxopiperidin-3-yl)isoindoline-1,3-dione] |  |  |  |  | 100 to 1000 | 10 to 100 | 10 to 100 | 10 to 100 |
| Cn1ncc2cnc(-c3cn([C@H]4C[C@H](CNc5ccc6c(c5)CN(C5CCC(=O)NC5=O)C6=O)C4)nc3C3CC3)cc21 (stereo partly drawn) [GS-678, 3-(5-(((Trans-3-(3-cyclopropyl-4-(1-methyl-1H-pyrazolo[4,3-c]pyridin-6-yl)-1H-pyrazol-1-yl)cyclobutyl)methyl)amino)-1-oxoisoindolin-2-yl)piperidine-2,6-dione] | < 10 | < 10 | < 10 | < 10 |  |  |  |  |
| Cc1nc(-c2cn([C@H]3C[C@H](CNc4ccc5c(c4)C(=O)N(C4CCC(=O)NC4=O)C5=O)C3)nc2C2CC2)cc2c1cnn2C (stereo partly drawn) [GS-747, 5-(((Trans-3-(3-cyclopropyl-4-(1,4-dimethyl-1H-pyrazolo[4,3-c]pyridin-6-yl)-1H-pyrazol-1-yl)cyclobutyl)methyl)amino)-2-(2,6-dioxopiperidin-3-yl)isoindoline-1,3-dione] | 10 to 100 | < 10 | 10 to 100 | < 10 |  |  |  |  |
